Source: EPA's ToxValDB 9.5

Test system: Rattus norvegicus
Details: oral
[1] = subchronic, gavage, M, Sprague-Dawley, Clinical Observation: Salivation + Hematology: NEUT increase + Histopathology: Forestomach-Erosion Forestomach-Cellular infiltration, …
[2] = short-term, duration: 28 days, gavage, M, Sprague-Dawley, Clinical Observation: Reddish urine Soft stool DiarrheaSpontaneous locomotion decrease, Incomplete eyelid opening + Functional Observational…
[3] = short-term, duration: 28 days, gavage, F, Wistar, Deaths + Clinical Observation: Thinly haired areas of skin Weakness Thin appearance Respiratory disorders Some resistance to dosing + Body …
[4] = short-term, duration: 28 days, gavage, M, Wistar, Deaths + Clinical Observation: Thinly haired areas of skin Weakness Thin appearance Respiratory disorders Some resistance to dosing + Body …
[5] = subchronic, gavage, M, Sprague-Dawley, Urinalysis: Round epithelial cell increase + Hematology: RBC decrease, HGB decrease, HCT decrease, RET increase, R + Blood Chemistry: a2-…
[6] = short-term, duration: 28 days, gavage, M, Sprague-Dawley, Clinical Observation: Salivation Dark green urinelocomotor activity decrease, Staining around nose and mouth + Functional Observational …
[7] = subchronic, gavage, M, Sprague-Dawley, Clinical Observation: Respiratory noise Irregular respiration Deep respiration R Soiled perigenital region R Oligo-stool R Hypothermia R + …

CN1CCN(C)C1=O [1,3-Dimethyl-2-imidazolidinone]
NOEL (subchronic, gavage, M, Sprague-Dawley, Body Weight Changes: Gain decrease(trend) + Blood Chemistry: TG increase, T-Cho increase(trend)TP decrease, R a1-glb decrease, R beta-glb …): 20 mg/kg-day

C1CCC2=NCCCN2CC1 [1,8-Diazabicyclo[5.4.0]undec-7-ene]
NOAEL [1]: 30 mg/kg-day
NOEL [1]: 10 mg/kg-day

Nc1c(Br)cc(Br)c2c1C(=O)c1ccccc1C2=O [1-Amino-2,4-dibromoanthraquinone]
NOAEL [2]: < 200 mg/kg-day
NOEL [2]: < 200 mg/kg-day
NOEL (subchronic, duration: 13 weeks, diet, F, Fischer 344, Deaths + Clinical Observation: Lethargy Emaciation StaggeredHunched posture + Body Weight Changes: decrease + Food Consumption: decrease + …): < 170 mg/kg-day
NOEL (subchronic, duration: 13 weeks, diet, M/F, Fischer 344, Deaths + Clinical Observation: Lethargy Emaciation StaggeredHunched posture + Body Weight Changes: decrease + Food Consumption: decrease + …): < 240 mg/kg-day

CC(O)CCl (configuration not stated) [1-Chloro-2-propanol]
NOEL (chronic, duration: 14 weeks, water, M/F, Fischer 344, Body Weight Changes: decrease + Water Consumption: decrease + Urinalysis: Urine volume decrease, Specific gravity increase, Total protein …): < 7.36 mg/kg-day

CCCCCCCCCCCCCCCCO [1-Hexadecanol]
NOAEL [3]: 300 mg/kg-day
NOEL [3]: 300 mg/kg-day
NOAEL [4]: 300 mg/kg-day
NOEL [4]: 100 mg/kg-day
NOAEL (short-term, duration: 28 days, gavage, Sprague-Dawley): 1000 mg/kg-day
NOAEL (subchronic, duration: 13 weeks, diet, F, Crl, Body Weight Changes: decrease2064 + Food Consumption: decrease2064 + Absolute Organ Weight: Brain2064 Heart LiverSpleen Gonad + Relative …): 875 mg/kg-day
NOAEL (subchronic, duration: 13 weeks, diet, M, Crl, Body Weight Changes: decrease2064 + Food Consumption: decrease2064 + Absolute Organ Weight: Brain2064 Heart LiverSpleen Gonad + Relative …): 723 mg/kg-day

C=CC/C=C/C/C=C/C/C=C/C [1-Propene, tetramer]
NOAEL [5]: 40 mg/kg-day
NOEL [5]: < 40 mg/kg-day

C=CCCCCCCCCCCCC [1-Tetradecene]
NOAEL (subchronic, gavage, M, Sprague-Dawley, Absolute Organ Weight: Liver increase + Relative Organ Weight: Liver increase + Histopathology: Liver-Hepatocyte cytoplasmic vacuolation): 100 mg/kg-day

Cc1cc(C)c(C)c(O)c1 [2,3,5-Trimethylphenol]
NOEL (subchronic, gavage, M, Sprague-Dawley, Clinical Observation: Soiled perigenitalia of urine LethargyAtaxia gait(transient after administration) + Body Weight Changes: decrease(…): 100 mg/kg-day

Cl.Cl.Nc1ccc(O)c(N)c1 [2,4-Diaminophenol dihydrochloride]
NOAEL [6]: 50 mg/kg-day
NOEL [6]: < 50 mg/kg-day
NOEL (subchronic, duration: 13 weeks, gavage, M/F, Fischer 344, Deaths + Body Weight Changes: decrease>50 + Absolute Organ Weight: Liver increase, Thymus decrease + Relative Organ Weight: Right kidney …): < 12 mg/kg-day

Cc1ccc(S(=O)(=O)O)c(C)c1 [2,4-Dimethylbenzenesulfonic acid]
LOEL [7]: 500 mg/kg-day
NOEL [7]: 100 mg/kg-day

CC(C)=CC=C(C)C [2,5-Dimethyl-2,4-hexadiene]
NOEL (subchronic, gavage, M, Sprague-Dawley, Clinical Observation: Soiled peri-genital + Body Weight Changes: decrease + Food Consumption: decrease(day1-8) + Hematology: WBC increase, …): < 100 mg/kg-day

C#CC(C)(C)O [2-Methyl-3-butyn-2-ol]
NOAEL (short-term, duration: 28 days, gavage, M/F, BOB:WISW, Deaths + Clinical Observation: Sedation Narcosis Hypothermia + Body Weight Changes: decrease + Food Consumption: decrease + Hematology: WBC …): 50 mg/kg-day

Sc1ccc2ccccc2c1 [2-Naphthalenethiol]
NOEL (short-term, duration: 28 days, gavage, M/F, Sprague-Dawley, Functional Observational Battery: Landing foot splay decrease + Food Consumption: decrease + Water Consumption: increase + Urinalysis: …): 8 mg/kg-day
